Values after ≈ are worked out from the molar mass of the structure shown.
Key:
[1] = Log P (physiochemical properties); format: physicochemical
[2] = pKa (physiochemical properties); format: physicochemical
From the text: Table 1 Physiochemical properties of […] and […]. | column: […]; […]

[3] = Permeability (physiochemical properties); format: in vitro ADME
[4] = Solubility in phosphate buffer saline (PBS); format: physicochemical; conditions: phosphate buffered saline (PBS)
[5] = Mouse PK of G7883, IP in MCT vehicle; format: in vivo, female NSG mice; conditions: for AUC(0-t) / Cmax / Tmax / half-life: female, NSG, plasma; for half-life: ip
Procedure: A total of 0.6% w/v Methylcellulose, 0.2% w/v Tween 80 in water (MCT) was prepared by slowly adding Methylcellulose (Methylocel A15 LV; CAS 9004-67-5, Part ID: 64605-500G-F 27.5-31.5% Methoxyl basis, Sigma-Aldrich, St. Louis, MO, USA) in small portions to prevent clumping while stirring into water at 70–80 °C. Once a homogeneous suspension formed, Tween 80 (Polysorbate 80; CAS#9005-65-6 (Polyoxyethylene (20) Sorbitan Monooleate; Tween 80) Part ID: PO138, Spectrum Chemical, New Brunswick, NJ, USA) was added and stirred until fully dissolved. Vehicle was filtered through 0.22 µm PES (Corning REF no. 431098) prior to adding to the compound for dosing. Respective compound was added based on the target concentration to the MCT vehicle and stirred at 35 °C until the power was well-dispersed. Formulations were homogenized through a polytron homogenizer and then sonicated in a water bath sonicator until a homogeneous suspension was achieved.
G7883 was dosed in three female NSG mice in-house with body weight ranging from 20 to 25 g. Three mice were given an IP dose of G7883 formulated in the MCT vehicle at 50 mpk and 150 mpk with a 5 mL/kg dosing volume. A total of 10 µL of blood was collected serially at 0.25, 0.5, 1, 3, 7, and 24 h post-dose and diluted in 40 µL of the potassium K2EDTA water. The frozen blood samples were stored at −70 °C or lower until analysis.
All plasma and cell media concentrations of G7883 and G6893 were determined using liquid chromatography–tandem mass spectrometry after protein precipitation with acetonitrile and injection of the supernatant onto the column (Waters ACQUITY UPLC BEH C18 1.7 μm, 2.1 × 50 mm for G7883 and G6893). The aqueous mobile phase was 0.1% formic acid, 2 mM ammonium formate in water/acetonitrile (v:v, 95:5), and the organic mobile phase was 0.1% formic acid, 2 mM ammonium formate in acetonitrile/water (v:v, 95:5). An AB Sciex API 4000 Triple Quad instrument was used for detecting G7883 and G6893 (Figure S2). The electrospray ionization source in both columns was operated in the positive ion and multiple reaction monitoring (MRM) detection modes. The MRM transitions for G7883 and G6893 were m/z 462.2 (Q1) and 253.10 (Q3) and m/z 454.2 (Q1) and 325.9 (Q3), respectively. The dynamic range of both assays was 0.50–50.0 ng/mL, and the total run time was 1.6 min. The lower limit of quantitation of the assay was […], and the dilution quality control concentration was set at 10 ng/mL with acceptance criteria for accuracy and precision of 25%.
All plasma and cell media concentrations of G7883 were determined using liquid chromatography–tandem mass spectrometry after protein precipitation with acetonitrile and injection of the supernatant onto the column (Phenomenex Kinetex XB-C18, 30 × 2.1 mm, 2.6 µm). The aqueous mobile phase was 10 mM of ammonium formate in water, and the organic mobile phase was 0.1% formic acid in acetonitrile. An AB Sciex API 5500 Triple Quad instrument was used for detecting G7883. The electrospray ionization source in both columns was operated in the positive ion and MRM detection modes. The MRM transitions for G7883 were m/z 462.2 (Q1) and 253.10 (Q3), respectively. The dynamic range of the assay was 0.50–50.0 ng/mL, and the total run time was 2 min. The lower limit of quantitation of the assay was […], and the dilution quality control concentration was set at 10 ng/mL with acceptance criteria for accuracy and precision of 25%.

[6] = Body weight change in multiday IP study; format: in vivo; conditions: IP 150 mpk BID, study spanning over 10 days, mice
[7] = Vehicle screening for solution or suspension formulations; format: physicochemical
Procedure: Based on the target concentration, G7883 was screened at 3.3 mg/mL in three different vehicles of 100%PEG400, 10%DMSO in 90%PEG400, and 20%DMSO in 80%PEG400 to generate a stable solution. […] A total of 50% DMSO is the maximum amount compatible with the iPRECIO pump system. Based on the target concentration, G6893 was screened at 5 mg/mL in four different vehicles as follows: 100% PEG400, 20% DMSO in 80% PEG400, 20% DMA and 40% PG in 40% PEG400, and 10% EtOH and 20% HPbCD in 70% water at pH 4.5. G6893 achieved a solution at the target concentration of 5 mg/mL in 100% PEG400 and maintained a solution without precipitation after dilution in PBS buffer.
G7883 was screened in different oil vehicles including corn, coconut, paraffin, soybean, and sunflower oil.

[8] = system: TEAD; parameters: method as in PMID 33679401; conditions: cellular assays; read-out: half-maximal inhibitory concentration (IC50) in cellular assays; cited from earlier work
[9] = 50 mg/kg, IP 50 mpk, MCT vehicle, mean
[10] = 150 mg/kg, IP 150 mpk, MCT vehicle, mean

- logP [1]: 1.83
- pKa [2]: 5.51
- permeability (in words) [3]: moderate permeability
- Papp ([3]; not told): 5.79 ×10⁻⁶ cm/s
- solubility [4]: 89 µg/mL (≈ 178 µM)
- increase of AUC coverage, IP versus PO ([5]; IP 150 mpk compared with PO 250 mpk): approximately 10 fold
- t1/2 ([5]; IP 150 mpk, MCT vehicle, mean, 150 mg/kg): 1.53 h
- AUC(0-t) [5, 9]: 31.2 µM·h
- Cmax [5, 9]: 23.9 µM
- Tmax [5, 9]: 1 h
- AUC(0-t) [5, 10]: 217 µM·h
- Cmax [5, 10]: 69.2 µM
- Tmax [5, 10]: 1 h
- half-life [5, 9]: 53.7 min
- half-life [5, 10]: 90 min
- concentration at which a solution was achieved ([7]; 20%DMSO in 80%PEG400): ≥ 3.3 mg/mL
- solubility in oil vehicle (in words) ([7]; sunflower oil): moderate solubility
Structure (SMILES): Cc1nccnc1-c1nn2c(=O)cc(-c3ccc(C4CCCCC4)cc3)[nH]c2c1C(=O)N1CC(CF)C1 [G7883, 5-(4-cyclohexylphenyl)-3-[3-(fluoromethyl)azetidine-1-carbonyl]-2-(3-methylpyrazin-2-yl)-4H-pyrazolo[1,5-a]pyrimidin-7-one]
- body weight change [6]: significant decreases in the body weights of mice were observed
- IC50 [8]: 1400 nM
